In US12570631B2, “Substituted N-(4-(pyrimidin and pyridin-4-yl)benzylcarboxamides and its use for treating disorders responsive to inhibition of Btk” (BIOGEN MA INC., priority 2019, dated 2026):
pIC50: −log10 of the molar value. Read-outs that look alike come from different tables or passages of the source.

What was measured:
[1] = target: BTK (Homo sapiens (Human), UniProt Q06187); assay: In vitro BTK kinase assay: Btk-PolyGAT-LS assay; type: biochemical; details: ATP 10 μM, polyGAT 100 nM, BTK 0.25 nM, 30 minutes
Sequence of BTK (Q06187 whole entry): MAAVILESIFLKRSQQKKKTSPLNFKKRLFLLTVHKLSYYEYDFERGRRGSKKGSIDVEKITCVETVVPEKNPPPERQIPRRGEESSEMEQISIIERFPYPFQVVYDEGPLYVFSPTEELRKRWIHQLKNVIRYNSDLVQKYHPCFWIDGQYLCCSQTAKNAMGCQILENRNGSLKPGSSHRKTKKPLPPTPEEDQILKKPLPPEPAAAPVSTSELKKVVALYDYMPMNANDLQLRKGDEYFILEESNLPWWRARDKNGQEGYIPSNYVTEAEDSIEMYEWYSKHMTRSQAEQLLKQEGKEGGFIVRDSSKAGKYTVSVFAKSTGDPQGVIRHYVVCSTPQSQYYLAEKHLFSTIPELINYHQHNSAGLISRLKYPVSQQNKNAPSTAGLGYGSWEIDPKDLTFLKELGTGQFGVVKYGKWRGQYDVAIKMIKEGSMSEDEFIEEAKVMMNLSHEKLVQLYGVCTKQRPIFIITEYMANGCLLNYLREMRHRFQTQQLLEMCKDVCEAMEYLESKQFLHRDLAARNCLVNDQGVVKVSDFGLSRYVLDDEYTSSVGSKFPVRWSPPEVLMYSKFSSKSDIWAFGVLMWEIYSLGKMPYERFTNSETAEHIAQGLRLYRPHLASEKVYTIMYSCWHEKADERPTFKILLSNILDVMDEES

[2] = tested on: CD69 expression on CD19+ B cells in human whole blood; assay: In vitro whole blood CD69 assay; type: cell-based; details: B-cell
[3] = Whole Blood CD69 inhibition, human heparinized blood, anti-human IgD stimulation, CD19+ B cells expressing CD69, read-out: IC50

Structure (SMILES) | pIC50 [1] | pIC50 [2, 3] | pIC50 ([2]; Homo sapiens)
C=CC(=O)N(C)CCOc1c(N)ncnc1-c1ccc(CNC(=O)c2nc(C(C)(C)C)no2)c(C)c1 [Example 7, N-(4-(6-amino-5-(2-(N-methylacrylamido)ethoxy)pyrimidin-4-yl)-2-methylbenzyl)-3-(tert-butyl)-1,2,4-oxadiazole-5-carboxamide] | > 9.00 | > 7.00 | –
C=CC(=O)N1CC[C@@H](Oc2cnccc2-c2ccc(CNC(=O)c3cn(C(C)(C)C)nn3)c(C)c2)C1 (single isomer, unassigned) [Example 35] | < 8.00 | < 6.00 | –
C=CC(=O)N(C)CCOc1cnccc1-c1ccc(CNC(=O)c2noc(C(C)(C)C)n2)c(C)c1F [Example 5, 5-(tert-butyl)-N-(3-fluoro-2-methyl-4-(3-(2-(N-methylacrylamido)ethoxy)pyridin-4-yl)benzyl)-1,2,4-oxadiazole-3-carboxamide] | > 9.00 | > 7.00 | –
C=CC(=O)N(C)CCOc1cncnc1-c1ccc(CNC(=O)c2noc(C(C)(C)C)n2)c(C)c1 [Example 3, 5-(tert-butyl)-N-(2-methyl-4-(5-(2-(N-methylacrylamido)ethoxy)-pyrimidin-4-yl)benzyl)-1,2,4-oxadiazole-3-carboxamide] | > 9.00 | > 7.00 | –
C#CC(=O)N1CCC(Oc2cnccc2-c2ccc(CNC(=O)c3cn(C(C)(C)C)nn3)c(C)c2)CC1 [Example 44, 1-(tert-butyl)-N-(2-methyl-4-(3-((1-propioloylpiperidin-4-yl)oxy)pyridin-4-yl)benzyl)-1H-1,2,3-triazole-4-carboxamide] | > 9.00 | < 6.00 | –
C=CC(=O)N1CCCC[C@@H]1C(=O)Nc1cnccc1-c1ccc(CNC(=O)c2noc(C(C)(C)C)n2)c(C)c1 [Example 31, (R)-N-(4-(3-(1-acryloylpiperidine-2-carboxamido)pyridin-4-yl)-2-methylbenzyl)-5-(tert-butyl)-1,2,4-oxadiazole-3-carboxamide] | > 9.00 | > 7.00 | –
C=CC(=O)N1CCCC(Oc2cnccc2-c2ccc(CNC(=O)c3cn(C(C)(C)C)nn3)c(C)c2)C1 (centres unmarked) [Example 38, N-(4-(3-((1-acryloylpiperidin-3-yl)oxy)pyridin-4-yl)-2-methylbenzyl)-1-(tert-butyl)-1H-1,2,3-triazole-4-carboxamide] | < 8.00 | < 6.00 | –
C=CC(=O)N1CCC(Oc2cnccc2-c2ccc(CNC(=O)c3cn(C(C)(C)C)nn3)c(C)c2)CC1 [Example 37, N-(4-(3-((1-acryloylpiperidin-4-yl)oxy)pyridin-4-yl)-2-methylbenzyl)-1-(tert-butyl)-1H-1,2,3-triazole-4-carboxamide] | > 9.00 | < 6.00 | –
Cc1cc(-c2ccncc2OC2CCN(C(=O)/C=C/CN(C)C)CC2)ccc1CNC(=O)c1cn(C(C)(C)C)nn1 [Example 42, (E)-1-(tert-butyl)-N-(4-(3-((1-(4-(dimethylamino)but-2-enoyl)piperidin-4-yl)oxy)pyridin-4-yl)-2-methylbenzyl)-1H-1,2,3-triazole-4-carboxamide] | > 9.00 | 6.00 to 7.00 | –
C=CC(=O)N(C)CCOc1c(N)ncnc1-c1ccc(CNC(=O)c2noc(C(C)(C)C)n2)c(C)c1 [Example 2, N-(4-(6-amino-5-(2-(N-methylacrylamido)ethoxy)pyrimidin-4-yl)-2-methylbenzyl)-5-(tert-butyl)-1,2,4-oxadiazole-3-carboxamide] | > 9.00 | – | > 7.00
C=CC(=O)N(C)CCOc1c(N)ncnc1-c1ccc(CN2CCc3c(cnn3C(C)(C)C)C2=O)c(C)c1 [Example 6, N-(2-((4-amino-6-(4-((1-(tert-butyl)-4-oxo-1,4,6,7-tetrahydro-5H-pyrazolo[4,3-c]pyridin-5-yl)methyl)-3-methylphenyl)pyrimidin-5-yl)oxy)ethyl)-N-methylacrylamide] | > 9.00 | > 7.00 | –
C=CC(=O)N1CCCC[C@H]1C(=O)Nc1cnccc1-c1ccc(CNC(=O)c2noc(C(C)(C)C)n2)c(C)c1 [Example 32, (S)-N-(4-(3-(1-acryloylpiperidine-2-carboxamido)pyridin-4-yl)-2-methylbenzyl)-5-(tert-butyl)-1,2,4-oxadiazole-3-carboxamide] | > 9.00 | > 7.00 | –
Cc1cc(-c2ccncc2OC2CN(C(=O)/C=C/CN(C)C)C2)ccc1CNC(=O)c1cn(C(C)(C)C)nn1 [Example 40, (E)-1-(tert-butyl)-N-(4-(3-((1-(4-(dimethylamino)but-2-enoyl)azetidin-3-yl)oxy)pyridin-4-yl)-2-methylbenzyl)-1H-1,2,3-triazole-4-carboxamide] | < 8.00 | < 6.00 | –
C#CC(=O)N1CCC(Oc2cnccc2-c2ccc(CNC(=O)c3cn(C(C)(C)C)nn3)c(C)c2)C1 (centres unmarked) [Example 43, 1-(tert-butyl)-N-(2-methyl-4-(3-((1-propioloylpyrrolidin-3-yl)oxy)pyridin-4-yl)benzyl)-1H-1,2,3-triazole-4-carboxamide] | 8.00 to 9.00 | < 6.00 | –
C=CC(=O)N(C)CCOc1c(N)ncnc1-c1ccc(CNC(=O)c2cn(C(C)(C)C)nn2)c(C)c1 [Example 8, N-(4-(6-amino-5-(2-(N-methylacrylamido)ethoxy)pyrimidin-4-yl)-2-methylbenzyl)-1-(tert-butyl)-1H-1,2,3-triazole-4-carboxamide] | > 9.00 | > 7.00 | –
C=CS(=O)(=O)N1CCCC1COc1cnccc1-c1ccc(CNC(=O)c2cn(C(C)(C)C)nn2)c(C)c1F (centres unmarked) [Example 50, 1-(tert-butyl)-N-(3-fluoro-2-methyl-4-(3-((1-(vinylsulfonyl)pyrrolidin-2-yl)methoxy)pyridin-4-yl)benzyl)-1H-1,2,3-triazole-4-carboxamide] | > 9.00 | < 6.00 | –
